In article PMC11778240, “Synthesis and preclinical evaluation of tigilanol tiglate analogs as latency-reversing agents for the eradication of HIV” (Science Advances, 2025):
Values joined by “and” are separate entries in the source; they are usually repeats but may differ in a detail not shown here. Equal values may be shown once. Read-outs that look alike come from different tables or passages of the source.

Experiments:
PKC-β-I = biological target: T1, PKC-β-I (Homo sapiens, UniProt P05771); experiment: Cell-free PKC competition binding assay against 3H-PDBu; conditions: for PKC-β selectivity: Fig. 7A, PKC-β over PKC-δ; for logKi (best-fit value), PKC-β-I: log of Ki in nM; for PKC binding affinity and selectivity in words / decrease in PKC binding affinity / potency compared to EBC-46: PKC-β and PKC-δ
T1 construct: purchased Invitrogen
T1 sequence (P05771 whole entry): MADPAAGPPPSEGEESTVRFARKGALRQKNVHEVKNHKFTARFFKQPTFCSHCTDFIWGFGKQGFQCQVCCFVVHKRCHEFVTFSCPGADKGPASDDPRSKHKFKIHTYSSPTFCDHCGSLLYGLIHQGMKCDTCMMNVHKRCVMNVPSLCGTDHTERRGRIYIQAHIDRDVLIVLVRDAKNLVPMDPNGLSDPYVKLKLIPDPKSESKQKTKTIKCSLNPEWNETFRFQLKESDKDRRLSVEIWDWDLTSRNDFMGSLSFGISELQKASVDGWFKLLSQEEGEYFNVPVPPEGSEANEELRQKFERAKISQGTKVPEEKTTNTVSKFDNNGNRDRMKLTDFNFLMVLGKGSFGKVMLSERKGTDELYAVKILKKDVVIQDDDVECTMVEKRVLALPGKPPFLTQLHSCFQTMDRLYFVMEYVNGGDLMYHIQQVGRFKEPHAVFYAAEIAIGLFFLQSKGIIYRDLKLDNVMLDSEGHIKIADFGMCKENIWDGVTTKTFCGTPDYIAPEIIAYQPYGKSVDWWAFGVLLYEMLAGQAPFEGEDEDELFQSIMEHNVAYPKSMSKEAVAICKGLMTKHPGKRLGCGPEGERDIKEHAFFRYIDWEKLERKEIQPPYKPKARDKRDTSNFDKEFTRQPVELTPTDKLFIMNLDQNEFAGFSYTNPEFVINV
Source text: With a diverse library of compounds bearing unique functionalities on the A-, B-, and C-rings (Fig. 6), we began to explore how these modifications affect PKC binding (Fig. 7A), NF-κB activation (Fig. 7B), cell permeation and PKC translocation (Fig. 7, C and D), and latency reversal in J-Lat cells (Fig. 8). […] We conducted this assay with phosphatidyl serine vesicles in solution that mimic the cellular membrane and play a critical role in the binding of small molecules to the PKC C1 domain (Fig. 7A) ([64]).
Cell-free PKC Binding Assay
The protein kinase C (PKC) affinity of EBC-46 and EBC-46 analogs was determined via […]
entails a glass-fiber filtration method to determine bound radioligand. The method of determining the radioligand Kd is also described.
Tris HCl (Fisher, ≥ 99%, stored at room temperature)
Phosphatidylserine (Avanti Polar Lipids, porcine, 25 mg/mL CHCl3 solution, stored at - […]
Bovine serum albumin (Sigma -Aldrich, ≥ 98%, globulin free, protease free, stored at 4 […]
Human PKC-β-I-GST fusion protein (Invitrogen, aliquoted and stored at -78 °C) Human PKC-δ-GST fusion protein (Invitrogen, aliquoted and stored at -78 °C) Glass-fiber filters (Whatman GF/B) […]
a final concentration of 500 nM.
Preparation of phosphatidylserine (PS) vesicles :
For every 96 samples, 3.5 mg phosphatidylserine (140 μL) (25 mg/mL CHCl3 solution) was concentrated by removing chloroform under reduced pressure. The phosphatidylserine residue was resuspended in freshly prepared PKC binding assay buffer (3.5 mL), capped, and then thoroughly mixed by alternating between sonicating and vortexing, in 10 second intervals for 1 minute or until a cloudy white mixture (Branson Sonifier 250, power = 2, 50% duty cycle). The resulting cloudy white mixture (1 mg/mL) was stored on ic e until use.
Preparation of the "master mix" Solution :
Constituent Stock concentration (final concentration/amount in “master mix”):
PS vesicles (0.103 mg/mL)
Deionized H2O - Final vol of 30 mL
Preparation of PKC binding assay buffer:
For every 96 samples, to a 50 mL polypropylene tube was added Tris -HCl (pH 7.4, 1 M, 1.5 mL), KCl (1 M, 3 mL), CaCl2 (0.1 M, 35 μL – conventional isoforms only), and bovine serum albumin (60 mg). This mixture was diluted to 30 mL with deionized H2O and mixed gently. The buffer was […]
Preparation of PKC isoform solution:
For every 96 samples, PKC isoform solution was prepared by dissolving a 4 μg aliquot of the indicated recombinant human PKC isoform into 26.5 mL of PKC binding assay buffer. The diluted PKC was stored on ice for immediate use.
Preparation of PKC “master mix” solution:
To the PKC-isoform solution was added 1 mg/mL PS vesicles solution (3.30 mL), and 500 nM […]
The resulting “master mix” solution was vortexed and stored on […]
Preparation of analog compound dilutions:
Compound dilutions were prepared with filtered DMSO by serially diluting from a chosen "high" concentration. For the saturation binding experiment (radioligand Kd determination), the maximum radioligand concentration used was 4.0 nM with 2-fold dilutions between data points […]
the middle of the binding curve.
For the competition binding experiment (analog Ki determination), 7 or 14 concentrations were used to define the inhibition curve, and compounds dilutions changed by factors of 2 or √2 between data points. The concentrations were chosen such that the in-assay concentration for the data points in the middle of the binding curve were approximately equal to the IC50 of the compound (if the IC50 is unknown, an exploratory binding assay is recommended prior to Ki determination). For assays with one compound per sheet, the √2-fold dilutions were prepared for the concentrations in […]
PKC binding assay protocol (Saturation -binding experiment and Competition -binding experiment)
1) Glass-fiber filters were prepared by soaking them in a solution of aqueous polyethyleneimine

J-Lat clone 10.6 cells = experiment: J-Lat HIV latency reversal assay (GFP expression); assay type: cell-based, Human; conditions: J-Lat 10.6, 48 hours; for HIV latency reversal in words: ascending concentrations
Source text: Having shown that our lead compounds bind cell-free PKC isoforms, enter cells, translocate PKC-GFP fusion proteins, and activate NF-κB transcription factors, we next set out to determine whether our analogs were capable of reversing HIV from latency. We performed in vitro assays using T lymphocyte J-Lat clone 10.6, which contains a latent near full-length replication-incompetent integrated HIV DNA genome ([72]). J-Lat 10.6 lacks two viral genes, env and nef, which encode for the envelope protein and an accessory protein, respectively, and thus cannot initiate a spreading HIV infection. The integrated HIV provirus also encodes a GFP reporter gene, allowing latency reversal to be measured by quantification of GFP expression (fig. S1). […] In this latency reversal assay, we quantified GFP expression 48 hours after compound addition and observed bryostatin 1 to be maximally effective at concentrations of 40 nM or higher with latency reversal in 12% of cells (Fig. 8). Given the efficacy of bryostatin 1 as an LRA ([73], [74]), EBC-46 and many of its analogs tested in this J-Lat assay induced latency reversal in >90% of cells. […] SUW427, an esterase-releasable prodrug of EBC-46, also performed similarly to EBC-46 with a maximum efficacy of latency reversal in >90% of cells at a dose of 250 nM. […] The gradual release of EBC-46 from its prodrug form provides an alternative mode of administration that avoids the bolus effect associated with rapid drug administration ([17]). […] This is consistent with its lack of activity in the NF-κB activation assay and its design as a negative control as it is structurally similar to EBC-46 but unable to bind to the C1 domain of PKC at the concentrations used in this assay as it lacks a complete pharmacophore.
HIV latency reversal in-vitro assay
Human T Lymphocyte J-Lat Full Length Cell Line 10.6 (cat #9849) was obtained through the NIH HIV Reagent Program, Division of AIDS, NIAID, NIH and was contributed to the NIH HIV Reagent Program by Dr. Eric Verdin (70). J-Lat 10.6 cells were plated at 5 × 10^5 cells in 180 μL of RF10 media consisting of RPMI media supplemented with 1% Penicillin/Streptomycin and 10% Fetal Bovine Serum (FBS) in 96 -well U -bottom plates. J -Lat 10.6 cells were then stimulated for 48 hr by adding 20 μL of newly designed and synthesized tigilanol tiglate analogs, PKC modulators (bryostatin 1) as our positive control or med ia only (mock) as our negative control. Our negative control was RF10 media as the tigilanol tiglate analogs were freshly diluted with RF10 prior to plating. The final volume was 200 μL per well. Experiments were performed in three independent biological replicates, each completed in technical duplicates (n = 6). After 48 hr stimulation, 96 - well U -bottom plates were centrifuged at 296 RCF for 7 minutes to pellet cells, which were resusp ended in 200 μL of freshly prepared 2% paraformaldehyde (PFA) in PBS. GF P expression was measured 24 -hours post -fixation using the FITC channel on a LSR Fortessa (BD Biosciences) flow cytometer. Data analysis was conducted with FlowJo software version 10.8.1.

[1] = HotNM 2.5, HotKdNM 0.37, supplement fit, read-out: Ki (best-fit value), PKC-β-I
[2] = competition against radiolabeled PDBu, Fig. 7A and text, read-out: Ki PKC-β

| Structure (SMILES) | selectivity for PKC-β over PKC-δ (PKC-β-I) | preference for binding PKC-β over PKC-δ (PKC-β-I; Discussion) | PKC-β selectivity (PKC-β-I) | Ki (PKC-β-I; [1]) | Ki (PKC-β-I; [2]) | logKi (best-fit value), PKC-β-I (PKC-β-I; HotNM 2.5, HotKdNM 0.37) | PKC binding affinity and selectivity in words (PKC-β-I) | maximal latency reversal, % of cells (J-Lat clone 10.6 cells; 250 nM) | decrease in PKC binding affinity / potency compared to EBC-46 (PKC-β-I) | HIV latency reversal in words (J-Lat clone 10.6 cells) |
| --- | --- | --- | --- | --- | --- | --- | --- | --- | --- | --- |
| C/C=C(\C)C(=O)O[C@@H]1[C@@H](C)[C@@]2(O)[C@H]([C@@H]3C(C)(C)[C@]13OC(=O)[C@@H](C)CC)[C@@H]1O[C@]1(CO)[C@@H](O)[C@]1(O)C(=O)C(C)=C[C@H]12 [EBC-46, Tigilanol tiglate] | twofold | 2.3 × | 2.3 | 1.38 nM | 1.4 nM | 0.1397 | – | – | – | – |
| C/C=C(\C)C(=O)O[C@@H]1[C@@H](C)[C@]2(O)[C@@H]3C=C(C)C(=O)[C@@]3(O)[C@H](O)C(CO)=C[C@H]2[C@@H]2C(C)(C)[C@]12OC(=O)[C@@H](C)CC [SUW400] | – | – | 2.9 | 0.851 nM | 0.85 nM | -0.07019 | nearly identical binding affinity and selectivity compared to EBC-46 | > 90 % of cells | – | – |
| C/C=C(\C)C(=O)O[C@@H]1[C@@H](C)[C@@]2(O)[C@@H](C=C(CO)C[C@]3(O)C(=O)C(C)=C[C@@H]23)[C@@H]2C(C)(C)[C@]12OC(=O)[C@@H](C)CC [SUW402] | – | – | 3.7 | 0.118 nM | 0.12 nM | -0.9263 | remarkable affinities in the picomolar range | – | – | – |
| CC=C(C)C(=O)OC1C(C)C2(O)C(C3OC3(CO)CC3(O)C(=O)C(C)=CC32)C2C(C)(C)C12OC(=O)C(C)CC (stereo not shown) [SUW403] | – | – | 2.7 | 7.9 nM | 7.9 nM | 0.8975 | – | – | approximately fivefold | required a higher dose than EBC-46 before we detected reversal activity |
| C/C=C(\C)C(=O)O[C@@H]1[C@@H](C)[C@@]2(O)[C@H]([C@@H]3C(C)(C)[C@]13OC(=O)C1CCC1)[C@@H]1O[C@]1(CO)[C@@H](O)[C@]1(O)C(=O)C(C)=C[C@H]12 [SUW406] | fourfold | – | 3.8 | 1.98 nM | 2 nM | 0.2968 | – | – | – | required a higher dose than EBC-46 before we detected reversal activity |
| C/C=C(\C)C(=O)O[C@@H]1[C@@H](C)[C@@]2(O)[C@H]([C@@H]3C(C)(C)[C@]13OC(=O)[C@H](C)CC)[C@@H]1O[C@]1(CO)[C@@H](O)[C@]1(O)C(=O)C(C)=C[C@H]12 [SUW407] | – | – | 1.6 | 2.31 nM | 2.3 nM | 0.3637 | – | – | – | required a higher dose than EBC-46 before we detected reversal activity |
| CC[C@H](C)C(=O)O[C@@]12[C@H](OC(=O)C3(C)CC3)[C@@H](C)[C@@]3(O)[C@H]([C@@H]1C2(C)C)[C@@H]1O[C@]1(CO)[C@@H](O)[C@]1(O)C(=O)C(C)=C[C@H]13 [SUW413] | – | – | 3.9 | 2.45 nM | 2.5 nM | 0.3892 | very similar binding affinity to both PKC-β and PKC-δ compared to SUW406 | – | – | required a higher dose than EBC-46 before we detected reversal activity |
| C/C=C(\C)C(=O)O[C@@H]1[C@@H](C)[C@@]2(O)[C@H]([C@@H]3C(C)(C)[C@]13OC(=O)N1CCCC1)[C@@H]1O[C@]1(CO)[C@@H](O)[C@]1(O)C(=O)C(C)=C[C@H]12 [SUW421] | 10 fold | – | 9.5 | 20.1 nM | 20 nM and ~25 nM | 1.302 | – | – | > 10 fold | – |
| C/C=C(\C)C(=O)O[C@@H]1[C@@H](C)[C@]2(O)[C@@H]3C=C(C)[C@H](OC(=O)c4ccccc4)[C@@]3(O)[C@H](O)C(CO)=C[C@H]2[C@@H]2C(C)(C)[C@]12OC(=O)[C@@H](C)CC [SUW422] | – | – | 2.1 | 1.49 nM | 1.5 nM | 0.1731 | nearly identical binding potency and selectivity to EBC-46 | – | – | required a higher dose than EBC-46 before we detected reversal activity |
| CC[C@H](C)C(=O)O[C@@]12[C@H](OC(=O)N3CCCC3)[C@@H](C)[C@@]3(O)[C@H]([C@@H]1C2(C)C)[C@@H]1O[C@]1(CO)[C@@H](O)[C@]1(O)C(=O)C(C)=C[C@H]13 [SUW424] | 6 fold | – | 6.1 | 27.8 nM | 28 nM and ~25 nM | 1.445 | – | – | > 10 fold | – |
| C/C=C(\C)C(=O)O[C@@H]1[C@@H](C)[C@]2(O)[C@@H]3C=C(C)[C@H](OC(=O)C=C(C)C)[C@@]3(O)[C@H](O)C(CO)=C[C@H]2[C@@H]2C(C)(C)[C@]12OC(=O)[C@@H](C)CC [SUW425] | – | – | 1.8 | 2.61 nM | 2.6 nM | 0.4165 | approximately the same as EBC-46 | – | – | required a higher dose than EBC-46 before we detected reversal activity |
